Measurements from ChEMBL document CHEMBL2057203, “Synthesis and evaluation of novel F-18 labeled 4-aminoquinazoline derivatives: potential PET imaging agents for tumor detection” (Bioorg Med Chem Lett, 2012).

What was measured:
[1] = n-octanol-PBS partition coefficient, logP of the compound; assay type: physicochemical
Plasma = assay: Metabolic stability in mouse plasma after 2 hrs by radio-HPLC analysis; assay type: ADME, cell-free
[2] = Chemical stability in PBS after 2 hrs by radio-HPLC analysis at room temperature; assay type: physicochemical; settings: buffer
[3] = Chemical stability in PBS after 2 hrs by radio-HPLC analysis at 60 degC; assay type: physicochemical; settings: buffer
Heart [4] = assay: Biodistribution in S180 tumor-bearing mouse heart at 8 to 10 uCi, iv after 5 mins by gamma counting; assay type: ADME, organism-based; settings: in vivo
Liver [5] = assay: Biodistribution in S180 tumor-bearing mouse liver at 8 to 10 uCi, iv after 5 mins by gamma counting; assay type: ADME, organism-based; settings: in vivo
Spleen [6] = assay: Biodistribution in S180 tumor-bearing mouse spleen at 8 to 10 uCi, iv after 5 mins by gamma counting; assay type: ADME, organism-based; settings: in vivo
Lung [7] = assay: Biodistribution in S180 tumor-bearing mouse lungs at 8 to 10 uCi, iv after 5 mins by gamma counting; assay type: ADME, organism-based; settings: in vivo
Kidney [8] = assay: Biodistribution in S180 tumor-bearing mouse kidneys at 8 to 10 uCi, iv after 5 mins by gamma counting; assay type: ADME, organism-based; settings: in vivo
Stomach [9] = assay: Biodistribution in S180 tumor-bearing mouse stomach at 8 to 10 uCi, iv after 5 mins by gamma counting; assay type: ADME, organism-based; settings: in vivo
Muscle tissue [10] = assay: Biodistribution in S180 tumor-bearing mouse muscle at 8 to 10 uCi, iv after 5 mins by gamma counting; assay type: ADME, organism-based; settings: in vivo
Brain [11] = assay: Biodistribution in S180 tumor-bearing mouse brain at 8 to 10 uCi, iv after 5 mins by gamma counting; assay type: ADME, organism-based; settings: in vivo
Mus musculus [12] = assay: Biodistribution in S180 cells xenografted in mouse tumor at 8 to 10 uCi, iv after 5 mins by gamma counting; assay type: ADME, organism-based, Neoplasm, CCRF S-180; settings: in vivo
Blood [13] = assay: Biodistribution in S180 tumor-bearing mouse blood at 8 to 10 uCi, iv after 5 mins by gamma counting; assay type: ADME, organism-based; settings: in vivo
Nucleic Acid [14] = assay: Ratio of drug level in tumor to muscle in S180 tumor-bearing mouse at 8 to 10 uCi, iv at 5 mins by gamma counting; assay type: ADME, organism-based; settings: in vivo
Nucleic Acid [15] = assay: Ratio of drug level in tumor to blood in S180 tumor-bearing mouse at 8 to 10 uCi, iv at 5 mins by gamma counting; assay type: ADME, organism-based; settings: tumour
Nucleic Acid [16] = assay: Ratio of drug level in tumor to brain in S180 tumor-bearing mouse at 8 to 10 uCi, iv at 5 mins by gamma counting; assay type: ADME, organism-based; settings: in vivo
Heart [17] = assay: Biodistribution in S180 tumor-bearing mouse heart at 8 to 10 uCi, iv after 30 mins by gamma counting; assay type: ADME, organism-based; settings: in vivo, 0.5 h
Liver [18] = assay: Biodistribution in S180 tumor-bearing mouse liver at 8 to 10 uCi, iv after 30 mins by gamma counting; assay type: ADME, organism-based; settings: in vivo, 0.5 h
Spleen [19] = assay: Biodistribution in S180 tumor-bearing mouse spleen at 8 to 10 uCi, iv after 30 mins by gamma counting; assay type: ADME, organism-based; settings: in vivo, 0.5 h
Lung [20] = assay: Biodistribution in S180 tumor-bearing mouse lung at 8 to 10 uCi, iv after 30 mins by gamma counting; assay type: ADME, organism-based; settings: in vivo, 0.5 h
Kidney [21] = assay: Biodistribution in S180 tumor-bearing mouse kidney at 8 to 10 uCi, iv after 30 mins by gamma counting; assay type: ADME, organism-based; settings: in vivo, 0.5 h
Stomach [22] = assay: Biodistribution in S180 tumor-bearing mouse stomach at 8 to 10 uCi, iv after 30 mins by gamma counting; assay type: ADME, organism-based; settings: in vivo, 0.5 h
Muscle tissue [23] = assay: Biodistribution in S180 tumor-bearing mouse muscle at 8 to 10 uCi, iv after 30 mins by gamma counting; assay type: ADME, organism-based; settings: in vivo, 0.5 h
Brain [24] = assay: Biodistribution in S180 tumor-bearing mouse brain at 8 to 10 uCi, iv after 30 mins by gamma counting; assay type: ADME, organism-based; settings: in vivo, 0.5 h
Mus musculus [25] = assay: Biodistribution in S180 cells xenografted in mouse tumor at 8 to 10 uCi, iv after 30 mins by gamma counting; assay type: ADME, organism-based, Neoplasm, CCRF S-180; settings: in vivo, 0.5 h
Blood [26] = assay: Biodistribution in S180 tumor-bearing mouse blood at 8 to 10 uCi, iv after 30 mins by gamma counting; assay type: ADME, organism-based; settings: in vivo, 0.5 h
Nucleic Acid [27] = assay: Ratio of drug level in tumor to muscle in S180 tumor-bearing mouse at 8 to 10 uCi, iv at 30 mins by gamma counting; assay type: ADME, organism-based; settings: in vivo, 0.5 h
Nucleic Acid [28] = assay: Ratio of drug level in tumor to blood in S180 tumor-bearing mouse at 8 to 10 uCi, iv at 30 mins by gamma counting; assay type: ADME, organism-based; settings: tumour, 0.5 h
Nucleic Acid [29] = assay: Ratio of drug level in tumor to brain in S180 tumor-bearing mouse at 8 to 10 uCi, iv at 30 mins by gamma counting; assay type: ADME, organism-based; settings: in vivo, 0.5 h
Heart [30] = assay: Biodistribution in S180 tumor-bearing mouse heart at 8 to 10 uCi, iv after 60 mins by gamma counting; assay type: ADME, organism-based; settings: in vivo, 1 h
Liver [31] = assay: Biodistribution in S180 tumor-bearing mouse liver at 8 to 10 uCi, iv after 60 mins by gamma counting; assay type: ADME, organism-based; settings: in vivo, 1 h
Spleen [32] = assay: Biodistribution in S180 tumor-bearing mouse spleen at 8 to 10 uCi, iv after 60 mins by gamma counting; assay type: ADME, organism-based; settings: in vivo, 1 h
Lung [33] = assay: Biodistribution in S180 tumor-bearing mouse lung at 8 to 10 uCi, iv after 60 mins by gamma counting; assay type: ADME, organism-based; settings: in vivo, 1 h
Kidney [34] = assay: Biodistribution in S180 tumor-bearing mouse kidney at 8 to 10 uCi, iv after 60 mins by gamma counting; assay type: ADME, organism-based; settings: in vivo, 1 h
Stomach [35] = assay: Biodistribution in S180 tumor-bearing mouse stomach at 8 to 10 uCi, iv after 60 mins by gamma counting; assay type: ADME, organism-based; settings: in vivo, 1 h
Muscle tissue [36] = assay: Biodistribution in S180 tumor-bearing mouse muscle at 8 to 10 uCi, iv after 60 mins by gamma counting; assay type: ADME, organism-based; settings: in vivo, 1 h
Brain [37] = assay: Biodistribution in S180 tumor-bearing mouse brain at 8 to 10 uCi, iv after 60 mins by gamma counting; assay type: ADME, organism-based; settings: in vivo, 1 h
Mus musculus [38] = assay: Biodistribution in S180 cells xenografted in mouse tumor at 8 to 10 uCi, iv after 60 mins by gamma counting; assay type: ADME, organism-based, Neoplasm, CCRF S-180; settings: in vivo, 1 h
Blood [39] = assay: Biodistribution in S180 tumor-bearing mouse blood at 8 to 10 uCi, iv after 60 mins by gamma counting; assay type: ADME, organism-based; settings: in vivo, 1 h
Nucleic Acid [40] = assay: Ratio of drug level in tumor to muscle in S180 tumor-bearing mouse at 8 to 10 uCi, iv at 60 mins by gamma counting; assay type: ADME, organism-based; settings: in vivo, 1 h
Nucleic Acid [41] = assay: Ratio of drug level in tumor to blood in S180 tumor-bearing mouse at 8 to 10 uCi, iv at 60 mins by gamma counting; assay type: ADME, organism-based; settings: tumour, 1 h
Nucleic Acid [42] = assay: Ratio of drug level in tumor to brain in S180 tumor-bearing mouse at 8 to 10 uCi, iv at 60 mins by gamma counting; assay type: ADME, organism-based; settings: in vivo, 1 h
Heart [43] = assay: Biodistribution in S180 tumor-bearing mouse heart at 8 to 10 uCi, iv after 120 mins by gamma counting; assay type: ADME, organism-based; settings: in vivo, 2 h
Liver [44] = assay: Biodistribution in S180 tumor-bearing mouse liver at 8 to 10 uCi, iv after 120 mins by gamma counting; assay type: ADME, organism-based; settings: in vivo, 2 h
Spleen [45] = assay: Biodistribution in S180 tumor-bearing mouse spleen at 8 to 10 uCi, iv after 120 mins by gamma counting; assay type: ADME, organism-based; settings: in vivo, 2 h
Lung [46] = assay: Biodistribution in S180 tumor-bearing mouse lung at 8 to 10 uCi, iv after 120 mins by gamma counting; assay type: ADME, organism-based; settings: in vivo, 2 h
Kidney [47] = assay: Biodistribution in S180 tumor-bearing mouse kidney at 8 to 10 uCi, iv after 120 mins by gamma counting; assay type: ADME, organism-based; settings: in vivo, 2 h
Stomach [48] = assay: Biodistribution in S180 tumor-bearing mouse stomach at 8 to 10 uCi, iv after 120 mins by gamma counting; assay type: ADME, organism-based; settings: in vivo, 2 h
Muscle tissue [49] = assay: Biodistribution in S180 tumor-bearing mouse muscle at 8 to 10 uCi, iv after 120 mins by gamma counting; assay type: ADME, organism-based; settings: in vivo, 2 h
Brain [50] = assay: Biodistribution in S180 tumor-bearing mouse brain at 8 to 10 uCi, iv after 120 mins by gamma counting; assay type: ADME, organism-based; settings: in vivo, 2 h
Mus musculus [51] = assay: Biodistribution in S180 cells xenografted in mouse tumor at 8 to 10 uCi, iv after 120 mins by gamma counting; assay type: ADME, organism-based, Neoplasm, CCRF S-180; settings: in vivo, 2 h
Blood [52] = assay: Biodistribution in S180 tumor-bearing mouse blood at 8 to 10 uCi, iv after 120 mins by gamma counting; assay type: ADME, organism-based; settings: in vivo, 2 h
Nucleic Acid [53] = assay: Ratio of drug level in tumor to muscle in S180 tumor-bearing mouse at 8 to 10 uCi, iv at 120 mins by gamma counting; assay type: ADME, organism-based; settings: in vivo, 2 h
Nucleic Acid [54] = assay: Ratio of drug level in tumor to blood in S180 tumor-bearing mouse at 8 to 10 uCi, iv at 120 mins by gamma counting; assay type: ADME, organism-based; settings: tumour, 2 h
Nucleic Acid [55] = assay: Ratio of drug level in tumor to brain in S180 tumor-bearing mouse at 8 to 10 uCi, iv at 120 mins by gamma counting; assay type: ADME, organism-based; settings: in vivo, 2 h
Blood [56] = assay: Clearance in S180 tumor-bearing mouse blood at 8 to 10 uCi, iv at 120 mins; assay type: ADME, organism-based; settings: in vivo, 2 h

COc1cc2ncnc(Nc3cccc(Br)c3)c2cc1OCC[18F]
logP [1]: 0.89
Stability (Plasma): Stable
Stability [2]: Stable
Stability [3]: Stable
Drug uptake (Heart [4]): 4.79 % ID/g
Drug uptake (Liver [5]): 9.67 % ID/g
Drug uptake (Spleen [6]): 2.84 % ID/g
Drug uptake (Lung [7]): 12.21 % ID/g
Drug uptake (Kidney [8]): 10.85 % ID/g
Drug uptake (Stomach [9]): 8.52 % ID/g
Drug uptake (Muscle tissue [10]): 1.87 % ID/g
Drug uptake (Brain [11]): 0.78 % ID/g
Drug uptake (Mus musculus [12]): 0.38 % ID/g
Drug uptake (Blood [13]): 4.43 % ID/g
Ratio (Nucleic Acid [14]): 0.2
Ratio (Nucleic Acid [15]): 0.09
Ratio (Nucleic Acid [16]): 0.49
Drug uptake (Heart [17]): 1.12 % ID/g
Drug uptake (Liver [18]): 7.96 % ID/g
Drug uptake (Spleen [19]): 1.25 % ID/g
Drug uptake (Lung [20]): 5.12 % ID/g
Drug uptake (Kidney [21]): 2.83 % ID/g
Drug uptake (Stomach [22]): 7.03 % ID/g
Drug uptake (Muscle tissue [23]): 2.46 % ID/g
Drug uptake (Brain [24]): 0.39 % ID/g
Drug uptake (Mus musculus [25]): 4.04 % ID/g
Drug uptake (Blood [26]): 1.58 % ID/g
Ratio (Nucleic Acid [27]): 1.64
Ratio (Nucleic Acid [28]): 2.56
Ratio (Nucleic Acid [29]): 10.36
Drug uptake (Heart [30]): 0.98 % ID/g
Drug uptake (Liver [31]): 1.87 % ID/g
Drug uptake (Spleen [32]): 0.8 % ID/g
Drug uptake (Lung [33]): 5.6 % ID/g
Drug uptake (Kidney [34]): 0.9 % ID/g
Drug uptake (Stomach [35]): 4.05 % ID/g
Drug uptake (Muscle tissue [36]): 0.43 % ID/g
Drug uptake (Brain [37]): 0.19 % ID/g
Drug uptake (Mus musculus [38]): 3.31 % ID/g
Drug uptake (Blood [39]): 1.11 % ID/g
Ratio (Nucleic Acid [40]): 7.7
Ratio (Nucleic Acid [41]): 2.98
Ratio (Nucleic Acid [42]): 17.42
Drug uptake (Heart [43]): 1.87 % ID/g
Drug uptake (Liver [44]): 1.78 % ID/g
Drug uptake (Spleen [45]): 1.05 % ID/g
Drug uptake (Lung [46]): 3.6 % ID/g
Drug uptake (Kidney [47]): 1.07 % ID/g
Drug uptake (Stomach [48]): 4.1 % ID/g
Drug uptake (Muscle tissue [49]): 1.31 % ID/g
Drug uptake (Brain [50]): 0.09 % ID/g
Drug uptake (Mus musculus [51]): 3.7 % ID/g
Drug uptake (Blood [52]): 0.56 % ID/g
Ratio (Nucleic Acid [53]): 2.82
Ratio (Nucleic Acid [54]): 6.61
Ratio (Nucleic Acid [55]): 41.11
CL (Blood [56]): 88%
